For assay [1], the system named is GM3 expression on the cell surface, B16 mouse melanoma cells. In words: cell based phenotypic assay, cell surface GM3 by antibody mediated immunofluorescence, B16 (GM3 B16 IC50). As to conditions: Mus musculus, B16 mouse melanoma cells; 50% inhibition of GM3 expression on the cell surface; read-out: GM3 B16 IC50. A digest of the protocol:
(§1)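 Both lines undergo the phenotypic GM3 assay, and viability is recorded from that same cell-based run.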

The test system of assay [2] is C32 human melanoma cells. In words: cell viability in the C32 cell-based assay (Viability, C32 IC50). The settings on record: Homo sapiens, C32, C32 cells; concentration causing 50% cell death; values greater than 10 represent a lack of cell death; read-out: Viability, C32 IC50. A digest of the protocol: as §1
The target of assay [3] is T1, glucosylceramide synthase (Homo sapiens, UniProt Q16739).
T1 construct: Microsomes were isolated from A375 human melanoma cells; endogenous in cells; host or cells: A375 human melanoma cells (microsomal fraction, 100,000 g pellet)
T1 sequence (Q16739 1-394): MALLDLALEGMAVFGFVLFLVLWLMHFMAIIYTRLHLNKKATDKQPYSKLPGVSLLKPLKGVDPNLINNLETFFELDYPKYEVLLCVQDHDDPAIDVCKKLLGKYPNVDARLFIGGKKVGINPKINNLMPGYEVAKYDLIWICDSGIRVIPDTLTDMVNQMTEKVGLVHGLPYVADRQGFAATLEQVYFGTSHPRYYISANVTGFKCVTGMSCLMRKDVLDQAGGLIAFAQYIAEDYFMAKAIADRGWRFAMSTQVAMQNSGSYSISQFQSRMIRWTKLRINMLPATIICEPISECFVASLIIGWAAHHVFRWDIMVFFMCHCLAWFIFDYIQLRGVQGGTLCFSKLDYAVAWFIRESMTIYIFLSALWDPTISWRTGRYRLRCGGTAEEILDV
In words: microsomal assay measuring conversion of ceramide to glucosylceramide by HPLC (GCS IC50). It counts as biochemical. As to conditions: concentration causing 50% inhibition of glucosylceramide synthase activity. A digest of the protocol: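 Microsomal preparation assayed for glucosylceramide synthase by direct HPLC measurement of ceramide conversion to glucosylceramide. GCS IC50 is the compound concentration giving 50% inhibition of enzyme activity.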

In assay [4] the test system is GM3 expression on the cell surface, C32 human melanoma cells. In words: cell based phenotypic assay, cell surface GM3 by antibody mediated immunofluorescence, C32 (GM3 C32 IC50). As to conditions: Homo sapiens, C32 human melanoma cells; 50% inhibition of GM3 expression on the cell surface; read-out: GM3 C32 IC50. The essentials: as §1
Assay [5] deals with B16 mouse melanoma cells. In words: cell viability in the B16 cell-based assay (Viability, B16 IC50). The settings on record: Mus musculus, B16, B16 cells; concentration causing 50% cell death; values greater than 10 represent a lack of cell death; read-out: Viability, B16 IC50. A digest of the protocol:
as §1

As usually defined, the IC50 is the concentration that inhibits the measured activity by half. As to `COC1(C(=O)NC2(C)CCN3CCC2CC3)CCN(c2nccc(-c3ccc(F)cc3)n2)CC1` (stereo not shown) [Example 100, 1-(4-(4-Fluorophenyl)pyrimidin-2-yl)-4-methoxy-N-(4-methyl-1-azabicyclo[3.2.2]nonan-4-yl)piperidine-4-carboxamide], the IC50 in assay [1] was 26.5 nM; in assay [2] it was 1000 nM; in assay [3] it was 3.68 nM; in assay [4], 0.109 nM; in assay [5] it was 1900 nM.

Take `COCCCOc1ccc(-c2ccnc(N3CCC(OC)(C(=O)NC4(C)CCN5CCC4CC5)CC3)n2)cc1` (stereo not shown) [Example 101, 4-Methoxy-1-(4-(4-(3-methoxypropoxy)phenyl)pyrimidin-2-yl)-N-(4-methyl-1-azabicyclo[3.2.2]nonan-4-yl)piperidine-4-carboxamide]: the IC50 in assay [1] was determined as 78.5 nM; in assay [2], 1000 nM; in assay [3], 3.38 nM; in assay [4], 0.436 nM; in assay [5], 2030 nM.

Consider `COC1(C(=O)NC2(C)CCN3CCC2CC3)CCN(c2ncc(F)c(-c3ccc(OCCF)cc3)n2)CC1` (stereo not shown) [Example 102, 1-(5-Fluoro-4-(4-(2-fluoroethoxy)phenyl)pyrimidin-2-yl)-4-methoxy-N-(4-methyl-1-azabicyclo[3.2.2]nonan-4-yl)piperidine-4-carboxamide], for which the IC50 in assay [1] stood at 92.9 nM; in assay [2], 100 nM; in assay [3], 1.03 nM; in assay [4] it was 0.258 nM; in assay [5] it was 2850 nM.

`COC1(C(=O)NC2(C)CCN3CCC2CC3)CCN(c2nccc(-c3ccc(OCCF)cc3)n2)CC1` (stereo not shown) [Example 103, 1-(4-(4-(2-Fluoroethoxy)phenyl)pyrimidin-2-yl)-4-methoxy-N-(4-methyl-1-azabicyclo[3.2.2]nonan-4-yl)piperidine-4-carboxamide]: the IC50 in assay [1] is 73.8 nM; in assay [2] it was 316 nM; in assay [3], 3.65 nM; in assay [4] it was 0.29 nM; in assay [5], 3110 nM.

Regarding `COCCOc1cnc(N2CCC(C(=O)NC3(C)CCN4CCC3CC4)CC2)nc1-c1ccc(F)cc1` (stereo not shown) [Example 104, 1-(4-(4-Fluorophenyl)-5-(2-methoxyethoxy)pyrimidin-2-yl)-N-(4-methyl-1-azabicyclo[3.2.2]nonan-4-yl)piperidine-4-carboxamide], the IC50 in assay [1] was 51.3 nM; in assay [2], 1000 nM; in assay [3], 25.1 nM; in assay [4], 3 nM; in assay [5] it was no less than 10000 nM.

Turning to `COCCOc1cc(-c2ccc(F)cc2)nc(N2CCC(C(=O)NC3(C)CCN4CCC3CC4)CC2)n1` (stereo not shown) [Example 105, 1-(4-(4-Fluorophenyl)-6-(2-methoxyethoxy)pyrimidin-2-yl)-N-(4-methyl-1-azabicyclo[3.2.2]nonan-4-yl)piperidine-4-carboxamide], the concentration for half-maximal inhibition (IC50) in assay [1] was 272 nM; in assay [2] it was 1000 nM; in assay [3], 10.5 nM; in assay [4], 2 nM; in assay [5] it was 3660 nM.

On to `CC1(NC(=O)C2CCN(c3cc(-c4ccc(F)cc4)ccn3)CC2)CCN2CCC1CC2` (stereo not shown) [Example 106, 1-(4-(4-Fluorophenyl)pyridin-2-yl)-N-(4-methyl-1-azabicyclo[3.2.2]nonan-4-yl)piperidine-4-carboxamide], for which the IC50 in assay [1] came to 15.3 nM; in assay [2], 9020 nM; in assay [3], 0.858 nM; in assay [4], 0.095 nM; in assay [5] it was 6970 nM.

`CC1(NC(=O)C2CCN(c3cncc(-c4ccc(F)cc4)c3)CC2)CCN2CCC1CC2` (stereo not shown) [Example 107, 1-(5-(4-Fluorophenyl)pyridin-3-yl)-N-(4-methyl-1-azabicyclo[3.2.2]nonan-4-yl)piperidine-4-carboxamide]: the IC50 was 299 nM in assay [1]; 78.5 nM in assay [2]; 4.76 nM in assay [3]; 0.935 nM in assay [4]; no less than 10000 nM in assay [5].
